Experimental findings from US20100286215A1, “BIS-AROMATIC COMPOUNDS USEFUL IN THE TREATMENT OF INFLAMMATION” (BIS-AROMATIC COMPOUNDS USEFUL IN THE TREATMENT OF …, priority 2007, published 2010) are described below.

The assay has as its target T1, Recombinant human LTC4 synthase (Homo sapiens, UniProt Q16873).
T1 construct: made in house; host or cells: Pichia pastoris ('Piccia pastoralis' [sic])
T1 sequence (Q16873 1-150): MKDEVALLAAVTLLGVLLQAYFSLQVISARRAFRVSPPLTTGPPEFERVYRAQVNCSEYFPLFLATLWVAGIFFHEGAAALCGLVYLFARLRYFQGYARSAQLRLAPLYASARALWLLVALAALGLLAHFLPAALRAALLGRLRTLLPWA
Nature of the assay: LTC4 synthase assay (conversion of LTA4 methyl ester to LTC4 methyl ester, HPLC). The format is biochemical. The note with it: inhibitor concentration 10 μM; for inhibition at 10 µM: read-out: Percantage Inhibition at 10 μM (unless specified otherwise). The protocol: In the assay LTC4 synthase catalyses the reaction where the substrate LTA4 methyl ester is converted to LTC4 methyl ester. Recombinant human LTC4 synthase is expressed in Piccia pastoralis and the purified enzyme is dissolved in 25 mM Tris-buffer pH 7.8 and stored at −20° C. The assay is performed in phosphate buffered saline (PBS) pH 7.4, supplemented with 5 mM glutathione (GSH). The reaction is terminated by addition of acetonitrile/MeOH/acetic acid (50/50/1). The assay is performed at rt in 96-well plates. Analysis of the formed LTC4 methyl ester is performed with reversed phase HPLC (Waters 2795 utilizing an Onyx Monolithic C18 column). The mobile phase consists of acetonitrile/MeOH/H2O (32.5/30/37.5) with 1% acetic acid pH adjusted with NH3 to pH 5.6, and absorbance measured at 280 nm with a Waters 2487 UV-detector.
The following is added chronologically to each well: • 1. 50 μl assay buffer, PBS with 5 mM GSH. • 2. 0.5 μl inhibitor in DMSO. • 3. 2 μl LTC4 synthase in PBS. The total protein concentration in this solution is 0.025 mg/ml. Incubation of the plate at room temperature for 10 minutes. • 4. 0.5 μl LTA4 methyl ester. Incubation of the plate at rt for 1 min. • 5. 50 μl stop solution. 80 μl of the incubation mixture is analysed with HPLC.

For the compound `CN(c1ccc(Cl)cc1)c1ccc(C(=O)c2ccc(Oc3ccc(Cl)cc3)c(C(=O)O)c2)cc1` [6:1, 2-(4-Chloro-phenoxy)-5-{4-[(4-chloro-phenyl)-methyl-amino]-benzoyl}-benzoic acid], the inhibition (usually the drop in the measured response relative to a control, in per cent) at 10 µM came out at 62%. The same measure, in the same setting: for `CN(c1ccc(Cl)cc1)c1ccc(C(=O)c2ccc(Oc3cccc(Cl)c3)c(-c3nnn[nH]3)c2)cc1` [10:2, [4-(3-Chloro-phenoxy)-3-(1H-tetrazol-5-yl)-phenyl]-{4-[(4-chloro-phenyl)-methyl-amino]-phenyl}-methanone] the value was 84%. `CCCCOc1ccc(S(=O)(=O)Nc2ccc(C(=O)c3ccc(NS(=O)(=O)c4ccc(OCCCC)cc4)c(C(=O)O)c3)cc2C(=O)O)cc1` [Example 7]: the “Percantage Inhibition at 10 μM (unless specified otherwise)” value turned out to be 97%. For the compound `O=C(Nc1ccc(C(F)(F)F)cc1)Nc1ccc(C(=O)c2ccc(NC(=O)Nc3ccc(C(F)(F)F)cc3)c(C(=O)O)c2)cc1C(=O)O` [Example 6, 2-[3-(4-trifluoromethylphenyl)-ureido]-5-{3-carboxy-4-[3-(4-trifluoromethylphenyl)ureido]-benzoyl}benzoic acid], the inhibition at 10 µM was determined as 95%.

Take `O=C(CC1CCCC1)Nc1ccc(C(=O)c2ccc(NC(=O)c3ccc(Cl)cc3Cl)c(C(=O)O)c2)cc1` [14:1, 5-[4-(2-Cyclopentyl-acetylamino)-benzoyl]-2-(2,4-dichloro-benzoylamino)-benzoic acid]: the inhibition at 10 µM was 93%.

For `O=C(Nc1ccc(C(=O)c2ccc(NC(=O)c3ccc(Cl)cc3Cl)c(C(=O)O)c2)cc1C(=O)O)c1ccc(OC(F)(F)F)cc1` [Example 11, 2-(4-(trifluoromethoxy)benzamido)-5-(4-(2,4-dichloro-benzamido)-3-carboxyphenyl-carbonyl)benzoic acid], the inhibition at 10 µM was determined as 100%.

Regarding `CN(c1ccc(Cl)cc1)c1ccc(C(=O)c2ccc(NC3CCC(C(C)(C)C)CC3)c(C(=O)O)c2)cc1` (stereo not shown) [Example 14:3, 2-(4-tert-Butyl-cyclohexylamino)-5-{4-[(4-chloro-phenyl)-methyl-amino]-benzoyl}-benzoic acid], the inhibition at 10 µM amounted to 86%.

In the case of `O=C(Nc1ccc(C(=O)c2ccc(NC(=O)c3cccc4c3OC(F)(F)O4)c(C(=O)O)c2)cc1)c1cccc(Cl)c1` [7:6, 5-[4-(3-Chloro-benzoylamino)-benzoyl]-2-[(2,2-difluoro-benzo[1,3]dioxole-4-carbonyl)-amino]-benzoic acid], the inhibition at 10 µM was 100%.

Consider `CN(c1ccc(Cl)cc1)c1ccc(C(=O)c2ccc(Oc3cccc(C(F)(F)F)c3F)c(C(=O)O)c2)cc1` [6:7, 5-{4-[(4-Chloro-phenyl)-methyl-amino]-benzoyl}-2-(2-fluoro-3-trifluoromethyl-phenoxy)-benzoic acid], for which the inhibition at 10 µM was 96%.

Consider `CN(c1ccc(Cl)cc1)c1ccc(C(=O)c2ccc(Oc3cccc4c3CCCC4)c(C(=O)O)c2)cc1` [6:10, 5-{4-[(4-Chloro-phenyl)-methyl-amino]-benzoyl}-2-(5,6,7,8-tetrahydro-naphthalen-1-yloxy)-benzoic acid], for which the inhibition at 10 µM amounted to 88%.
